Laboratory results from ChEMBL document CHEMBL1132527, “Synthesis, structural characterization and antitumor activity evaluations of copper complex with tetraazamacrocyclic ligand” (Bioorg Med Chem Lett, 1999).

Legend:
Assay type in all cases: functional, cell-based
BEL-7404 tumor cell line [1] = assay: In vitro antitumor activity against BEL-7404 tumor cell lines at 10e-4 mol/L conentation; details: Homo sapiens
BEL-7404 tumor cell line [2] = assay: In vitro antitumor activity against BEL-7404 tumor cell lines at 10e-6 mol/L conentation; details: Homo sapiens
BEL-7404 tumor cell line [3] = assay: In vitro antitumor activity against BEL-7404 tumor cell lines at 10e-7 mol/L conentation; details: Homo sapiens
BEL-7404 tumor cell line [4] = assay: In vitro antitumor activity against BEL-7404 tumor cell lines at 10e-5 mol/L conentation; details: Homo sapiens
P388 [5] = assay: In vitro antitumor activity against P388 tumor cell lines at 10e-4 mol/L conentation; details: Mus musculus
P388 [6] = assay: In vitro antitumor activity against P388 tumor cell lines at 10e-5 mol/L conentation; details: Mus musculus
BEL-7404 tumor cell line [7] = assay: In vitro antitumor activity against BEL-7404 tumor cell lines at 10e-8 mol/L conentation; details: Homo sapiens

Substance “Copper complex with 1,4,7,10-tetrakis(2-cyanolethyl-)-l,4,7,10-tetraazacyclododecane” has an inhibition (BEL-7404 tumor cell line [1]) of 63.3%, an inhibition (BEL-7404 tumor cell line [2]) of 78% and an inhibition (BEL-7404 tumor cell line [3]) of 5.6%. For the same substance, the inhibition (BEL-7404 tumor cell line [4]) was 75.6%, the inhibition (P388 [5]) was 100% and the inhibition (P388 [6]) was 96.4%. For the same substance, the inhibition (BEL-7404 tumor cell line [7]) was 10%.
